Reference: article PMC12676312, “Evaluation of Antiviral Activity of N‑Phenyl-2-Phenoxyacetamides Derived from Carvacrol against Mayaro Virus: In Vitro Analyses and In Silico Insights” (ACS Omega, 2025)

Legend:
[1] = system: Mayaro virus (MAYV); assay type: cell-based, Mayaro virus (ATCC VR 66, strain TR 4675); settings: Vero cells infected with MAYV (MOI 1) pre-treated 1 h with compound at its CC50-based concentration or 500 μM; 48 h; MTT; infected control 0%, uninfected 100%
Method: Vero cells (ATCC CCL-81) were used in all in vitro assays. Cells were cultured in DMEM medium supplemented with 2% fetal bovine serum (FBS), penicillin, and streptomycin, and incubated at a constant temperature of 37 °C under a controlled atmosphere of 5% CO2. Mayaro virus (ATCC VR 66, strain TR 4675) was initially propagated in C6/36 cells cultured in L-15 medium supplemented with 2% FBS, incubated at 28 °C. For viral titer determination, Vero cells (10^5 cells/well) were seeded in 24-well plates and cultured for approximately 24 h to achieve 80% confluence. Subsequently, the culture medium was replaced with 10-fold serial dilutions of the viral aliquot. The plate was maintained under constant agitation for 1 h to facilitate viral adsorption. The medium was then replaced with a semisolid medium (incomplete DMEM and 1% carboxymethylcellulose at a 2:1 ratio). Plates were incubated for 48 h under the aforementioned conditions, and cytopathic effects were monitored. After this period, cells were fixed with 10% formaldehyde and stained with 5% crystal violet solution for plaque counting. The mean number of plaques was used to determine the number of plaque-forming units (PFU), and the viral titer was expressed as PFU/mL.
To evaluate the antiviral potential of the molecules under study, an MTT (3-(4,5-dimethylthiazol-2-yl)-2,5-diphenyltetrazolium bromide) reduction assay was employed. Vero cells were seeded in 96-well plates (10^4 cells/well) and cultured until reaching approximately 80% confluence. […] For compounds with undetermined CC50 values, a concentration of 500 μM (the highest concentration tested in the previous study) was used. After incubation, the viral suspension was removed, DMEM medium was added, and cells were incubated for 48 h at 37 °C under a 5% CO2 atmosphere. Cell viability was determined by absorbance reading at 540 nm after solubilization of formazan crystals with DMSO, with the positive control (Vero cells infected with MAYV) defined as 0% cell viability and the negative control (uninfected Vero cells) defined as 100% cell viability. The compound providing the greatest cellular protection was selected for subsequent assays.

[2] = system: Vero cells; set-up: method as in previous study of our group; settings: ref previous study of our group; cited from earlier work
[3] = system: Mayaro virus (MAYV); assay: Pretreatment assay (plaque reduction); assay type: cell-based, Mayaro virus (ATCC VR 66, strain TR 4675); settings: Vero cells pretreated 3 h with different concentrations, then infected
Method: To determine whether the compound exerts a protective effect on cells prior to viral infection, Vero cells cultured in 24-well plates (10^5 cells/well) were treated for 3 h at 37 °C with 100 μL of the compound at different concentrations, with periodic agitation. Subsequently, the medium was replaced with 100 μL of a solution containing MAYV (100 PFU), and the plates were incubated under constant agitation for 1 h. The viral suspension was then replaced with a semisolid medium (DMEM + 1% carboxymethylcellulose), and the plates were incubated for 48 h at 37 °C under a 5% CO2 atmosphere. Cells were fixed with 10% formaldehyde and stained with 5% crystal violet solution for plaque counting. DMEM was used as the negative control, and 100 PFU of MAYV was used as the positive control (untreated).

[4] = system: Mayaro virus (MAYV); assay: Post-treatment assay (plaque reduction); assay type: cell-based, Mayaro virus (ATCC VR 66, strain TR 4675); settings: Vero cells treated after MAYV infection, any tested concentration
Method: To determine whether the compound acts after viral infection, Vero cells cultured in 24-well plates (10^5 cells/well) were initially infected with 100 μL of MAYV (100 PFU) and incubated under constant agitation for 1 h. The viral suspension was removed and replaced with 100 μL of the compound at different concentrations, followed by incubation for 3 h at 37 °C with periodic agitation. Subsequently, the medium was replaced with semisolid medium (DMEM + 1% carboxymethylcellulose). After 48 h of incubation at 37 °C and 5% CO2, the cells were fixed with 10% formaldehyde and stained with 5% crystal violet for plaque counting. For the negative control, DMEM was used, and for the positive control, 100 PFU of MAYV (untreated).

[5] = system: Mayaro virus (MAYV); assay: Internalization inhibition assay (plaque reduction); assay type: cell-based, Mayaro virus (ATCC VR 66, strain TR 4675); settings: concentrations between 500 μM and 62.5 μM; Vero cells
Method: To evaluate whether the compound affects the internalization step, 24-well plates (10^5 cells/well) were cooled at 4 °C for 30 min. The culture medium was removed, and cells were incubated with MAYV (100 PFU/well) at 4 °C for 2 h. Cells were washed with cold PBS, and 1 mL of DMEM was added followed by incubation for 5 min at 37 °C. Subsequently, different concentrations of the compound were added and incubated for 1 h at 37 °C. Cells were then washed with cold PBS and citrate buffer. Finally, semisolid medium (DMEM + 1% carboxymethylcellulose) was added, and plates were incubated at 37 °C for 48 h. Cells were fixed and stained for plaque counting. DMEM was used as the negative control, and 100 PFU of MAYV was used as the positive control (untreated).

[6] = system: Mayaro virus (MAYV); assay: Adsorption inhibition assay (plaque reduction); assay type: cell-based, Mayaro virus (ATCC VR 66, strain TR 4675); settings: 4 °C for 2 h, Vero cells, read-out: Decrease in the number of lysis plaques (adsorption inhibition)
Method: To assess whether the compound interferes with the viral adsorption step, 24-well plates (10^5 cells/well) were cooled at 4 °C for 30 min. The culture medium was removed, and cells were washed with cold PBS, followed by the addition of 100 μL of a solution containing MAYV (100 PFU) and different concentrations of the compound. Cells were incubated at 4 °C for 2 h and subsequently washed with cold citrate buffer (0.1 M citric acid and 0.1 M sodium citrate) and PBS. Semisolid medium (DMEM + 1% carboxymethylcellulose) was then added, and plates were incubated at 37 °C for 48 h. Cells were fixed and stained for plaque counting as previously described. DMEM was used as the negative control, and 100 PFU of MAYV served as the positive control (untreated).

[7] = system: Mayaro virus (MAYV); assay: Virucidal assay (plaque reduction); assay type: cell-based, Mayaro virus (ATCC VR 66, strain TR 4675); settings: Vero cells
Method: To determine the action of the molecule on viral particles, Vero cells cultured in 24-well plates (10^5 cells/well) at 80% confluence were infected with MAYV (100 PFU/well) previously incubated for 1 h with different concentrations of the compound at 37 °C (100 μL/well). Plates were maintained under agitation for 1 h, and afterward, the viral suspension was replaced with 1 mL of semisolid medium (DMEM + 1% carboxymethylcellulose). Plates were incubated for 48 h at 37 °C and 5% CO2 and subsequently fixed with 10% formaldehyde followed by staining with 5% crystal violet solution for plaque counting. DMEM was used as the negative control, and 100 PFU of untreated MAYV was used as the positive control.

[8] = system: MAYV; set-up: method as in Langedries et al.; settings: Vero cells; ref Langedries et al.; cited from earlier work

Compound | Antiviral screening (cell viability %) [1] | CC50 [2] | also measured
Cc1ccc(C(C)C)cc1OCC(=O)Nc1ccccc1Cl [Compound 1] | 62.5% | 200 µM | –
Cc1ccc(C(C)C)cc1OCC(=O)Nc1ccc(Cl)cc1 [Compound 3] | 0% | 449 µM | –
Cc1ccc(C(C)C)cc1OCC(=O)Nc1ccccc1Br [Compound 4] | 0% | 372 µM | –
Cc1ccc(C(C)C)cc1OCC(=O)Nc1cccc(Br)c1 [Compound 5] | 50.0% | > 500 µM | –
Cc1ccc(C(C)C)cc1OCC(=O)Nc1ccc(Br)cc1 [Compound 6] | 0% | 182 µM | –
Cc1ccc(C(C)C)cc1OCC(=O)Nc1ccccc1F [Compound 7] | 22.83% | > 500 µM | –
Cc1ccc(C(C)C)cc1OCC(=O)Nc1ccc(F)cc1 [Compound 9] | – | > 500 µM | Number of lysis plaques, pretreatment of cells [3]: No reduction in the number of lysis plaques; Viral activity, post-treatment [4]: no reduction in viral activity; Reduction in the number of lysis plaques (internalization inhibition) [5]: about 50%; inhibition at 500 µM [6]: ~58%; Reduction in the number of lysis plaques (virucidal activity) ([7]; 500 μM, MAYV pre-incubated 1 h with compound): approximately 40%; Virucidal activity (number of lysis plaques) ([7]; concentrations ranging from 500 μM to 31.25 μM): significant reduction in the number of lysis plaques
Cc1ccc(C(C)C)cc1OCC(=O)Nc1ccccc1 [Compound 10] | 0% | > 500 µM | –
NC(=O)c1ncn([C@@H]2O[C@H](CO)[C@@H](O)[C@H]2O)n1 [ribavirin] | – | – | Antiviral activity against MAYV [8]: no antiviral activity
